According to PubChem BioAssay (NCI):
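A five-concentration, 48-hour dose response in 96-well plates underlies each endpoint, interpolated linearly between surrounding concentrations. GI50 marks 50% less growth. TGI is the concentration that stops growth completely.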

Columns and labels:
Test in all cases: DTP human tumour cell line panel, 48 h
SF-539 CNS = test system: SF-539 CNS
MCF7 breast = test system: MCF7 breast
NCI-H522 lung = test system: NCI-H522 lung
SF-295 CNS = test system: SF-295 CNS
NCI-H460 lung = test system: NCI-H460 lung
HOP-62 NSCLC = test system: HOP-62 NSCLC
KM12 colon = test system: KM12 colon
M14 melanoma = test system: M14 melanoma
RPMI-8226 leukemia = test system: RPMI-8226 leukemia
HS 578T breast = test system: HS 578T breast
UO-31 renal = test system: UO-31 renal
SK-MEL-2 melanoma = test system: SK-MEL-2 melanoma
CCRF-CEM leukemia = test system: CCRF-CEM leukemia
EKVX NSCLC = test system: EKVX NSCLC
SR leukemia = test system: SR leukemia
SK-OV-3 ovarian = test system: SK-OV-3 ovarian
SF-268 CNS = test system: SF-268 CNS
786-0 renal = test system: 786-0 renal
A549 NSCLC = test system: A549 NSCLC
HT29 colon = test system: HT29 colon
MDA-MB-435 = test system: MDA-MB-435
HOP-92 NSCLC = test system: HOP-92 NSCLC
SN12C renal = test system: SN12C renal
U251 CNS = test system: U251 CNS
COLO 205 colon = test system: COLO 205 colon
NCI-H23 lung = test system: NCI-H23 lung
TK-10 renal = test system: TK-10 renal
MALME-3M melanoma = test system: MALME-3M melanoma
NCI/ADR-RES ovarian = test system: NCI/ADR-RES ovarian
MOLT-4 leukemia = test system: MOLT-4 leukemia
SNB-75 CNS = test system: SNB-75 CNS
K-562 leukemia = test system: K-562 leukemia
MDA-MB-231 breast = test system: MDA-MB-231 breast
UACC-62 melanoma = test system: UACC-62 melanoma
NCI-H226 lung = test system: NCI-H226 lung
UACC-257 melanoma = test system: UACC-257 melanoma
LOX IMVI melanoma = test system: LOX IMVI melanoma
OVCAR-4 ovarian = test system: OVCAR-4 ovarian
SW-620 colon = test system: SW-620 colon
SK-MEL-5 melanoma = test system: SK-MEL-5 melanoma
HL-60(TB) leukemia = test system: HL-60(TB) leukemia
BT-549 breast = test system: BT-549 breast
DU-145 prostate = test system: DU-145 prostate
OVCAR-3 ovarian = test system: OVCAR-3 ovarian
HCT-15 colon = test system: HCT-15 colon
A498 renal = test system: A498 renal
OVCAR-8 ovarian = test system: OVCAR-8 ovarian
HCC-2998 colon = test system: HCC-2998 colon
SNB-19 CNS = test system: SNB-19 CNS
IGROV1 ovarian = test system: IGROV1 ovarian
HCT-116 colon = test system: HCT-116 colon
OVCAR-5 ovarian = test system: OVCAR-5 ovarian
PC-3 prostate = test system: PC-3 prostate

## CCCC[C@H](NC(=O)[C@H]1CCCCN1C)C(=O)N(C)[C@H](C[C@@H](OC(C)=O)c1nc(C(=O)N[C@@H](Cc2ccccc2)C[C@H](C)C(=O)OCC)cs1)C(C)C
SF-539 CNS
  GI50: 3.46 nM
  TGI: 24 nM
MCF7 breast
  GI50: < 3.33 nM
  TGI: > 33300 nM
NCI-H522 lung
  GI50: < 3.33 nM
  TGI: 775 nM
SF-295 CNS
  GI50: < 3.33 nM
  TGI: 4340 nM
NCI-H460 lung
  GI50: < 3.33 nM
  TGI: 5650 nM
HOP-62 NSCLC
  GI50: < 3.33 nM
  TGI: 8610 nM
KM12 colon
  GI50: < 3.33 nM
  TGI: > 33300 nM
M14 melanoma
  GI50: < 3.33 nM
  TGI: 3620 nM
RPMI-8226 leukemia
  GI50: < 3.33 nM
  TGI: 4850 nM
HS 578T breast
  GI50: < 3.33 nM
  TGI: 8490 nM
UO-31 renal
  GI50: 18.8 nM
  TGI: 11900 nM
SK-MEL-2 melanoma
  GI50: < 3.33 nM
  TGI: 13700 nM
CCRF-CEM leukemia
  GI50: < 3.33 nM
  TGI: 6210 nM
EKVX NSCLC
  GI50: 7.39 nM
  TGI: > 33300 nM
SR leukemia
  GI50: < 3.33 nM
  TGI: 6790 nM
SK-OV-3 ovarian
  GI50: < 3.33 nM
  TGI: 13000 nM
SF-268 CNS
  GI50: < 3.33 nM
  TGI: 12100 nM
786-0 renal
  GI50: < 3.33 nM
  TGI: 6270 nM
A549 NSCLC
  GI50: 4.44 nM
  TGI: > 33300 nM
HT29 colon
  GI50: < 3.33 nM
  TGI: 3600 nM
MDA-MB-435
  GI50: < 3.33 nM
  TGI: < 3.33 nM
HOP-92 NSCLC
  GI50: 1230 nM
  TGI: 27300 nM
SN12C renal
  GI50: 5.83 nM
  TGI: 6550 nM
U251 CNS
  GI50: < 3.33 nM
  TGI: 8580 nM
COLO 205 colon
  GI50: < 3.33 nM
  TGI: 7.12 nM
NCI-H23 lung
  GI50: 6.41 nM
  TGI: > 33300 nM
TK-10 renal
  GI50: 7860 nM
  TGI: > 33300 nM
MALME-3M melanoma
  GI50: 1080 nM
  TGI: 7100 nM
NCI/ADR-RES ovarian
  GI50: 82.8 nM
  TGI: > 33300 nM
MOLT-4 leukemia
  GI50: 3.82 nM
  TGI: 20500 nM
SNB-75 CNS
  GI50: < 3.33 nM
  TGI: 10800 nM
K-562 leukemia
  GI50: < 3.33 nM
  TGI: 11100 nM
MDA-MB-231 breast
  GI50: < 3.33 nM
  TGI: 341 nM
UACC-62 melanoma
  GI50: < 3.33 nM
  TGI: 24100 nM
NCI-H226 lung
  GI50: 85.7 nM
  TGI: 19100 nM
UACC-257 melanoma
  GI50: 3560 nM
  TGI: 10600 nM
LOX IMVI melanoma
  GI50: < 3.33 nM
  TGI: 5640 nM
OVCAR-4 ovarian
  GI50: 476 nM
  TGI: > 33300 nM
SW-620 colon
  GI50: < 3.33 nM
  TGI: > 33300 nM
SK-MEL-5 melanoma
  GI50: < 3.33 nM
  TGI: 47.3 nM
HL-60(TB) leukemia
  GI50: < 3.33 nM
  TGI: 3.41 nM
BT-549 breast
  GI50: < 3.33 nM
  TGI: 133 nM
DU-145 prostate
  GI50: < 3.33 nM
  TGI: > 33300 nM
OVCAR-3 ovarian
  GI50: < 3.33 nM
  TGI: 12200 nM
HCT-15 colon
  GI50: 5.21 nM
  TGI: 5730 nM
A498 renal
  GI50: < 3.33 nM
  TGI: 8.69 nM
OVCAR-8 ovarian
  GI50: 5.28 nM
  TGI: > 33300 nM
HCC-2998 colon
  GI50: < 3.33 nM
  TGI: 8390 nM
SNB-19 CNS
  GI50: < 3.33 nM
  TGI: > 33300 nM
IGROV1 ovarian
  GI50: 3.43 nM
  TGI: > 33300 nM
HCT-116 colon
  GI50: < 3.33 nM
  TGI: > 33300 nM
OVCAR-5 ovarian
  GI50: 8.33 nM
  TGI: 21600 nM
PC-3 prostate
  GI50: < 3.33 nM
  TGI: > 33300 nM
